For data set [1], the system named is SK-BR-3 cancer cell line (human breast cancer cell line). The experiment in a line: MTT cytotoxicity assay, SK-BR-3 cancer cell line. It counts as cell-based. Conditions: for EC50: cancer cell line SKBR3. An excerpt:
(§1) The cytotoxic activity of CBDA methyl esters, CBCA CBGA and THCA was studied by the in vitro MTT colorimetric process (Mosmann, T. et al. J. Immunol. Methods. 1983; 65: 55-63). This method, which is widely used to measure cellular metabolic activity as an indicator of cell viability, division and cytotoxicity, is based on the reduction of a yellow salt of tetrazole ((3-(4,5-dimethylthiazol-2-yl)-2). 5-diphenyltetrazolium bromide or MTT) in violet formazan crystals from metabolically active cells.
(§2) Briefly for this cytotoxicity test, the SK-BR-3 cancer cell line (human breast cancer cell line), the MCF-7 cancer cell line (human breast cancer cell line), and the A2058 cancer cell line […]) and the cancer line SKMEL28 (melanoma line). All cell lines were tested at 20% v/v O2, in the presence of 10% FBS after 48 h or 72 h of incubation.
(Formazan colour is commonly taken as a measure of viable cells.)

The test system of data set [2] is breast cancer cells MDA-MB-231. The note with it: cited from earlier work.
The subject of the next data set is cyclooxygenase-2. Conditions: MDA-MB-231; cited from earlier work.
The test system of the next data set is normal MCF10A cells. The data set can be described thus: Cytotoxic activity in normal MCF10A cells compared to SK-BR-3. Conditions: FIG. 3. It counts as cell-based.
Source text: FIG. 3. Comparison of the cytotoxic activity of CBDA methyl ester in SK-BR-3 cancer cells compared to the cytotoxic activity in normal MCF10A cells.
as §1

Data set [3] has as its system MCF-7 cancer cell line (human breast cancer cell line). The data set can be described thus: MTT cytotoxicity assay, MCF-7 cancer cell line. The format is cell-based. Conditions: MCF7 cell line.
Source text: as §1, §2

Data set [4] deals with A2058 cancer cell line (melanoma). The experiment in a line: MTT cytotoxicity assay, A2058 cancer cell line. It counts as cell-based.
Source text: as §1, §2

For another data set, the system named is SKMEL28 (melanoma line). The experiment in a line: MTT cytotoxicity assay, SKMEL28 cancer line. The format is cell-based.
Source text: as §1, §2

Where [5] appears, read: MTT, incubation time not stated (48 h or 72 h).

In data set [1] (setting [5]), `CCCCCc1cc2c(c(O)c1C(=O)OC)C=CC(C)(CCC=C(C)C)O2` (stereo not shown) [CBCA-Me, CBCA methyl ester] registered an EC50 of 35 µM.
Turning to `C=C(C)[C@@H]1CCC(C)=C[C@H]1c1c(O)cc(CCCCC)c(C(=O)O)c1O` [CBDA, Cannabidiolic acid], in data set [2], the cell migration result is listed as “inhibit cell migration”. Moreover, the “expression of cyclooxygenase-2” value with cyclooxygenase-2 is “enhance the expression of cyclooxygenase-2”.
In turn, `C=C(C)[C@@H]1CCC(C)=C[C@H]1c1c(O)cc(CCCCC)c(C(=O)OC)c1O` [CBDA-Me, CBDA methyl ester] displayed an EC50 in data set [1] (setting [5]) of 30.6 µM. The “effect on SK-BR-3 cancer cells compared with normal MCF10A cells” value in the data set on normal MCF10A cells is recorded as “much stronger effect on SK-BR-3 cancer cells than normal MCF10A cells”.
`CCCCCc1cc(O)c(C/C=C(\C)CCC=C(C)C)c(O)c1` [CBG, cannabigerol, reference compound] yielded an EC50 in data set [1] (Homo sapiens, SK-BR-3, 72 h) of 38.8 µM.
Consider `CCCCCc1cc(O)c(C/C=C(\C)CCC=C(C)C)c(O)c1C(=O)OC` [CBGA-Me, CBGA methyl ester], for which the “relative cytotoxic activity among the esters” value in data set [1] (SKBR3, 48 h and 72 h (FIGS. 1 and 2)) is reported as “greatest activity”. Further, the “activity compared with the corresponding decarboxylated product” value in data set [1] (SKBR3, 72 h for CBGA methyl ester vs CBG) is “almost twice as active as CBG”. Further, the EC50 turned out to be 20.2 µM in data set [1] (setting [5]), 18 µM in data set [3], 17 µM in data set [4] and 17 µM in the data set with SKMEL28 (melanoma line).
For the compound `CCCCCc1cc2c(c(O)c1C(=O)OC)C1C=C(C)CCC1C(C)(C)O2` (stereo not shown) [THCA-Me, THCA methyl ester], in data set [1] (setting [5]), it took 36 µM to reach a half-maximal effect (EC50).

A word on the EC50: it is the concentration needed to bring the measured effect to its halfway point. A higher EC50 goes with a need for much substance.

Values taken from patent publication US20240166591A1, “Pharmaceutical Products Based on Cannabinoid Acid Esters” (priority 2021, published 2024).
